Experimental data taken from patent publication US12134610B2, “Somatostatin subtype-2 receptor (SST2R) targeted therapeutics and uses thereof” (priority 2022, dated 2024).
pEC50: −log10 of the molar value. Starred links: 1 amine or outer side, 2 acyl side, 3 side chain; linkers in the order of their positions; H or OH if unused. Non-standard residues stand in square brackets, D forms with d. Residues, ends and D or L forms follow the SMILES beside them. *: point of attachment. X1 = Cc1cc(F)cc(-c2cnc(NCCNC(=O)CCOCCC(=O)*)c(-c3nc4ccc(Cl)cc4[nH]3)c2N2CCC(N)CC2)c1; Dolaproine = CO[C@@H]([C@@H]1CCCN1)[C@@H](C)C(=O)O; Dil = CC[C@H](C)[C@H](NC)[C@@H](CC(=O)O)OC; PABC = O=C(OCc1ccc(N[*:1])cc1)[*:2]; X2 = C[C@@H](N*)[C@@H](O)c1ccccc1; Cit = NC(=O)NCCC[C@H](N)C(=O)O; NMeV = CN[C@H](C(=O)O)C(C)C

What was measured:
Assay type in all cases: cell-based
[1] = test system: NCI-H524 (ATCC) human small cell lung cancer cells; settings: 2 h
Outline: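 NCI-H524 cells (5,000/well) were exposed 24 h after plating to SMDC for 2 h, 11-point two-fold series from 1 uM. After washout they grew a further 70 h. Proliferation was read by CellTiter-Glo luminescence, % inhibition taken vs untreated control, and IC50 fitted by four-parameter nonlinear regression.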

[2] = molecular target: T1, human somatostatin receptor subtype 2 (Homo sapiens, UniProt P30874); assay: Functional cAMP assay for SSTR2 agonists (HTRF) in CHO-K1 cells; settings: CHO-K1 cells stably expressing human SST2, 20 min; read-out: hSST2 cAMP Avg EC50
T1 construct: expressed in transfected cells
Outline: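 CHO-K1 cells stably expressing receptor, plated 4 days before assay, treated 20 min at 37° C. with compound (typically 0-10,000 nM final) plus IBMX and 1.6 μM NKH477 to raise cAMP. HTRF read, 665/620 nm ratio; cAMP from standard curve, EC50 fitted.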

SST2 = molecular target: T2, SST2 (Homo sapiens, UniProt P30874); assay: PathHunter CHO-K1 SST2 internalization assay; settings: PathHunter CHO-K1 SST2, 90 min; read-out: Internalization EC50
T2 construct: host or cells: PathHunter CHO-K1 SST2 cells
Outline: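 PathHunter CHO-K1 SST2 cells, seeded and grown 48 h, were exposed to 11-point 1:3 dilutions of SMDC (top final 10 uM) for 90 min at 37 C, 5% CO2. Beta-Glo luminescence was read after 60 min at room temperature. Background-corrected duplicate means were fitted by four-parameter nonlinear regression to give IC50.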

T1 sequence (P30874 whole entry): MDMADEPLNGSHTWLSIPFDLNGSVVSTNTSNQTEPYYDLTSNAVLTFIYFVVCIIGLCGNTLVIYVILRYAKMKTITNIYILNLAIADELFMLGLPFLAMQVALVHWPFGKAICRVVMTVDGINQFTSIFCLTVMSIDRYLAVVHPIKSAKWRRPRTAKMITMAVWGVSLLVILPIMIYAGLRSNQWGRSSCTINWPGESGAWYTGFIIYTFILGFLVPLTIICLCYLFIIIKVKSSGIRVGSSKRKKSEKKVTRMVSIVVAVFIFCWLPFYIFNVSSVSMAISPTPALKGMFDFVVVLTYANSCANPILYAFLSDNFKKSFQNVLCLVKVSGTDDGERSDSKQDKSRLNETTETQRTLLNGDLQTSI
T2 sequence (P30874 whole entry): as above

SMILES: CC[C@H](C)[C@@H]([C@@H](CC(=O)N1CCC[C@H]1[C@H](OC)[C@@H](C)C(=O)N[C@H](C)[C@@H](O)c1ccccc1)OC)N(C)C(=O)[C@@H](NC(=O)[C@H](C(C)C)N(C)C(=O)OCc1ccc(NC(=O)[C@H](CCCNC(N)=O)NC(=O)[C@@H](NC(=O)CN2CCN(CC(=O)O)CCN(CC(=O)NCCOCCC(=O)NCCNc3ncc(-c4cc(C)cc(F)c4)c(N4CCC(N)CC4)c3-c3nc4ccc(Cl)cc4[nH]3)CC2)C(C)C)cc1)C(C)C [Compound 55]
- pEC50 [1]: 7.46
- pEC50 [2]: 9.77
- pEC50 (SST2): 8.08

SMILES: CC[C@H](C)[C@@H]([C@@H](CC(=O)N1CCC[C@H]1[C@H](OC)[C@@H](C)C(=O)N[C@H](C)[C@@H](O)c1ccccc1)OC)N(C)C(=O)[C@@H](NC(=O)[C@H](C(C)C)N(C)C(=O)OCc1ccc(NC(=O)[C@H](CCCNC(N)=O)NC(=O)[C@@H](NC(=O)[C@H](CCC(N)=O)NC(=O)CCOCCC(=O)NCCNc2ncc(-c3cc(C)cc(F)c3)c(N3CCC(N)CC3)c2-c2nc3ccc(Cl)cc3[nH]2)C(C)C)cc1)C(C)C [Compound 56] (X1-QV[Cit][PABC][NMeV]V[Dil][Dolaproine]-X2)
- pEC50 [1]: 7.99
- pEC50 [2]: 9.64
- pEC50 (SST2): 7.82

SMILES: CC[C@H](C)[C@@H]([C@@H](CC(=O)N1CCC[C@H]1[C@H](OC)[C@@H](C)C(=O)N[C@H](C)[C@@H](O)c1ccccc1)OC)N(C)C(=O)[C@@H](NC(=O)[C@H](C(C)C)N(C)C(=O)OCc1ccc(NC(=O)[C@H](CCCNC(N)=O)NC(=O)[C@@H](NC(=O)[C@H](CCC(N)=O)NC(=O)CCOCCC(=O)NCCNc2ncc(-c3cc(C)cc(F)c3)c(N3CCC(N)CC3)c2-c2nc3ccc(Cl)cc3[nH]2)C(C)C)cc1C(=O)NCCN)C(C)C [Compound 57]
- pEC50 [1]: 7.82
- pEC50 [2]: 9.42
- pEC50 (SST2): 8.24

SMILES: CC[C@H](C)[C@@H]([C@@H](CC(=O)N1CCC[C@H]1[C@H](OC)[C@@H](C)C(=O)N[C@H](C)[C@@H](O)c1ccccc1)OC)N(C)C(=O)[C@@H](NC(=O)[C@H](C(C)C)N(C)C(=O)OCc1ccc(NC(=O)[C@H](CCCNC(N)=O)NC(=O)[C@@H](NC(=O)[C@H](CCC(N)=O)NC(=O)CCOCCOCCOCCOCCC(=O)NCCNc2ncc(-c3cc(C)cc(F)c3)c(N3CCC(N)CC3)c2-c2nc3ccc(Cl)cc3[nH]2)C(C)C)cc1C(=O)NCCN)C(C)C [Compound 58]
- pEC50 [1]: 7.96
- pEC50 [2]: 9.43
- pEC50 (SST2): 8.30

SMILES: CC[C@H](C)[C@@H]([C@@H](CC(=O)N1CCC[C@H]1[C@H](OC)[C@@H](C)C(=O)N[C@H](C)[C@@H](O)c1ccccc1)OC)N(C)C(=O)[C@@H](NC(=O)[C@H](C(C)C)N(C)C(=O)OCc1ccc2cc1C(=O)NCCNC(=O)CC[C@H](NC(=O)CCOCCC(=O)NCCNc1ncc(-c3cc(C)cc(F)c3)c(N3CCC(N)CC3)c1-c1nc3ccc(Cl)cc3[nH]1)C(=O)N[C@@H](C(C)C)C(=O)N[C@@H](CCCNC(N)=O)C(=O)N2)C(C)C [Compound 59]
- pEC50 [1]: 7.85
- pEC50 [2]: 9.46
- pEC50 (SST2): 8.19

SMILES: CC[C@H](C)[C@@H]([C@@H](CC(=O)N1CCC[C@H]1[C@H](OC)[C@@H](C)C(=O)N[C@H](C)[C@@H](O)c1ccccc1)OC)N(C)C(=O)[C@@H](NC(=O)[C@H](C(C)C)N(C)C(=O)OCc1ccc(NC(=O)[C@H](CCCNC(N)=O)NC(=O)[C@@H](NC(=O)[C@H](CCC(N)=O)NC(=O)CCOCCOCCOCCOCCC(=O)NCCNc2ncc(-c3cc(C)cc(F)c3)c(N3CCC(N)CC3)c2-c2nc3ccc(Cl)cc3[nH]2)C(C)C)cc1C(=O)NC)C(C)C [Compound 60]
- pEC50 [1]: 7.46
- pEC50 [2]: 10.00
- pEC50 (SST2): 7.89

SMILES: CC[C@H](C)[C@@H]([C@@H](CC(=O)N1CCC[C@H]1[C@H](OC)[C@@H](C)C(=O)N[C@H](C)[C@@H](O)c1ccccc1)OC)N(C)C(=O)[C@@H](NC(=O)[C@H](C(C)C)N(C)C(=O)OCc1ccc(NC(=O)[C@H](CCCNC(N)=O)NC(=O)[C@@H](NC(=O)CCOCCOCCOCCOCCC(=O)NCCNc2ncc(-c3cc(C)cc(F)c3)c(N3CCC(N)CC3)c2-c2nc3ccc(Cl)cc3[nH]2)C(C)C)c(O[C@@H]2O[C@H](C(=O)O)[C@@H](O)[C@H](O)[C@H]2O)c1)C(C)C [Compound 62]
- pEC50 [1]: 7.21
- pEC50 [2]: 9.70
- pEC50 (SST2): 7.85

SMILES: CC[C@H](C)[C@@H]([C@@H](CC(=O)N1CCC[C@H]1[C@H](OC)[C@@H](C)C(=O)N[C@H](C)[C@@H](O)c1ccccc1)OC)N(C)C(=O)[C@@H](NC(=O)[C@H](C(C)C)N(C)C(=O)OCc1ccc(NC(=O)[C@H](CCCNC(N)=O)NC(=O)[C@@H](NC(=O)CCCCC(=O)NCCNc2ncc(-c3cc(C)cc(F)c3)c(N3CCC(N)CC3)c2-c2nc3ccc(Cl)cc3[nH]2)C(C)C)c(O[C@@H]2O[C@H](C(=O)O)[C@@H](O)[C@H](O)[C@H]2O)c1)C(C)C [Compound 63]
- pEC50 [1]: 7.89
- pEC50 [2]: 9.80
- pEC50 (SST2): 7.80
